From PubChem BioAssay AID1918945 (Molecular Pharmacology Branch, DTP, NCI, 2023)
Values joined by “and” are separate entries in the source; they are usually repeats but may differ in a detail not shown here. Identical values can stand only once.

Tested on: 883617-216-R-J1-PDC complex spheroid viability
Assay: Anticancer human tumor 883617-216-R-J1-PDC patient-derived bladder carcinoma cell line growth inhibition
Details: for viability, T/C: stronger effect = lower value; active = viability on the fitted dose curve at most 10% of control; inactive = the rest
How it was run: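 Complex spheroids of tumor cells with HUVEC and human MSCs, exposed to iadademstat combined with other agents. Each agent tested in half-log steps from near clinical Cmax (else 10 microM top), DMSO ≤0.25%.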

[1] = curve of first compound, second compound 0.1 µM
[2] = curve of first compound, second compound 0.316 µM
[3] = curve of first compound, second compound 1 µM
[4] = curve of first compound, second compound 3.16 µM
[5] = curve of first compound, second compound 10 µM
[6] = second compound 0.1 µM, first compound 0.0316 µM
[7] = second compound 0.1 µM, first compound 0.1 µM
[8] = second compound 0.1 µM, first compound 0.316 µM
[9] = second compound 0.1 µM, first compound 1 µM
[10] = second compound 0.1 µM, first compound 3.16 µM
[11] = second compound 0.1 µM, first compound 10 µM
[12] = second compound 0.316 µM, first compound 0.0316 µM
[13] = second compound 0.316 µM, first compound 0.1 µM
[14] = second compound 0.316 µM, first compound 0.316 µM
[15] = second compound 0.316 µM, first compound 1 µM
[16] = second compound 0.316 µM, first compound 3.16 µM
[17] = second compound 0.316 µM, first compound 10 µM
[18] = second compound 1 µM, first compound 0.0316 µM
[19] = second compound 1 µM, first compound 0.1 µM
[20] = second compound 1 µM, first compound 0.316 µM
[21] = second compound 1 µM, first compound 1 µM
[22] = second compound 1 µM, first compound 3.16 µM
[23] = second compound 1 µM, first compound 10 µM
[24] = second compound 3.16 µM, first compound 0.0316 µM
[25] = second compound 3.16 µM, first compound 0.1 µM
[26] = second compound 3.16 µM, first compound 0.316 µM
[27] = second compound 3.16 µM, first compound 1 µM
[28] = second compound 3.16 µM, first compound 3.16 µM
[29] = second compound 3.16 µM, first compound 10 µM
[30] = second compound 10 µM, first compound 0.0316 µM
[31] = second compound 10 µM, first compound 0.1 µM
[32] = second compound 10 µM, first compound 0.316 µM
[33] = second compound 10 µM, first compound 1 µM
[34] = second compound 10 µM, first compound 3.16 µM
[35] = second compound 10 µM, first compound 10 µM
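Also: exposure lasted seven days after three days of spheroid growth.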
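For viability, T/C in this document: 100% = DMSO vehicle control luminescence.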

CC1(C)CCC(CN2CCN(c3ccc(C(=O)NS(=O)(=O)c4ccc(NCC5CCOCC5)c([N+](=O)[O-])c4)c(Oc4cnc5[nH]ccc5c4)c3)CC2)=C(c2ccc(Cl)cc2)C1 + NC1CC1c1ccc(-c2cccc(O)c2)cc1
6.43 µM: IC50 [3]
7.41 µM: IC50 [1]
6.41 µM: IC50 [4]
4.92 µM: IC50 [5]
inactive: viability, T/C [6] 115% | viability, T/C [7] 116% | viability, T/C [8] 125% | viability, T/C [9] 129% | viability, T/C [10] 117% | viability, T/C [11] 26.2% | viability, T/C [12] 128% | viability, T/C [13] 130% | viability, T/C [14] 131% | viability, T/C [15] 129% | viability, T/C [16] 118% | viability, T/C [17] 23% | viability, T/C [18] 115% | viability, T/C [19] 121% | viability, T/C [20] 111% | viability, T/C [21] 121% | viability, T/C [22] 102% | viability, T/C [23] 17.4% | viability, T/C [24] 124% | viability, T/C [25] 109% | viability, T/C [26] 106% | viability, T/C [27] 115% | viability, T/C [28] 107% | viability, T/C [29] 14% | viability, T/C [30] 90.9% | viability, T/C [31] 96.8% | viability, T/C [32] 79.6% | viability, T/C [33] 83.1% | viability, T/C [34] 75.5% | viability, T/C [35] 11.2%
7.2 µM: IC50 [2]

CC1(C)CCC(CN2CCN(c3ccc(C(=O)NS(=O)(=O)c4ccc(NCC5CCOCC5)c([N+](=O)[O-])c4)c(Oc4cnc5[nH]ccc5c4)c3)CC2)=C(c2ccc(Cl)cc2)C1 + NC1CCC(NC2CC2c2ccccc2)CC1
7.1 µM: IC50 [5]
7.33 µM: IC50 [1]
inactive: viability, T/C [6] 108% | viability, T/C [7] 114% | viability, T/C [8] 109% | viability, T/C [9] 104% | viability, T/C [10] 109% | viability, T/C [11] 28.3% | viability, T/C [12] 111% | viability, T/C [13] 106% | viability, T/C [14] 122% | viability, T/C [15] 109% | viability, T/C [16] 125% | viability, T/C [17] 28.9% | viability, T/C [18] 105% | viability, T/C [19] 110% | viability, T/C [20] 118% | viability, T/C [21] 110% | viability, T/C [22] 113% | viability, T/C [23] 27.4% | viability, T/C [24] 104% | viability, T/C [25] 114% | viability, T/C [26] 110% | viability, T/C [27] 114% | viability, T/C [28] 120% | viability, T/C [29] 27% | viability, T/C [30] 107% | viability, T/C [31] 102% | viability, T/C [32] 108% | viability, T/C [33] 110% | viability, T/C [34] 118% | viability, T/C [35] 24.8%
7.34 µM: IC50 [3] | IC50 [4]
7.54 µM: IC50 [2]

CCN(c1cc(-c2ccc(CN3CCOCC3)cc2)cc(C(=O)NCc2c(C)cc(C)[nH]c2=O)c1C)C1CCOCC1 + NC1CC1c1ccc(-c2cccc(O)c2)cc1
inactive: viability, T/C (second compound 0.1 µM, first compound 0.00949 µM) 86.5% | viability, T/C (second compound 0.1 µM, first compound 0.03 µM) 84.8% | viability, T/C (second compound 0.1 µM, first compound 0.0949 µM) 81.9% | viability, T/C (second compound 0.1 µM, first compound 0.3 µM) 73.5% | viability, T/C (second compound 0.1 µM, first compound 0.949 µM) 79.4% | viability, T/C (second compound 0.1 µM, first compound 3 µM) 66.9% | viability, T/C (second compound 0.316 µM, first compound 0.00949 µM) 96.8% | viability, T/C (second compound 0.316 µM, first compound 0.03 µM) 92.2% | viability, T/C (second compound 0.316 µM, first compound 0.0949 µM) 83.4% | viability, T/C (second compound 0.316 µM, first compound 0.3 µM) 89.9% | viability, T/C (second compound 0.316 µM, first compound 0.949 µM) 86% | viability, T/C (second compound 0.316 µM, first compound 3 µM) 70% | viability, T/C (second compound 1 µM, first compound 0.00949 µM) 105% | viability, T/C (second compound 1 µM, first compound 0.03 µM) 93% | viability, T/C (second compound 1 µM, first compound 0.0949 µM) 88.2% | viability, T/C (second compound 1 µM, first compound 0.3 µM) 91.5% | viability, T/C (second compound 1 µM, first compound 0.949 µM) 88.6% | viability, T/C (second compound 1 µM, first compound 3 µM) 79.2% | viability, T/C (second compound 3.16 µM, first compound 0.00949 µM) 99.7% | viability, T/C (second compound 3.16 µM, first compound 0.03 µM) 83.3% | viability, T/C (second compound 3.16 µM, first compound 0.0949 µM) 73.8% | viability, T/C (second compound 3.16 µM, first compound 0.3 µM) 83.2% | viability, T/C (second compound 3.16 µM, first compound 0.949 µM) 88.6% | viability, T/C (second compound 3.16 µM, first compound 3 µM) 78.5% | viability, T/C (second compound 10 µM, first compound 0.00949 µM) 78.4% | viability, T/C (second compound 10 µM, first compound 0.03 µM) 72.9% | viability, T/C (second compound 10 µM, first compound 0.0949 µM) 69.2% | viability, T/C (second compound 10 µM, first compound 0.3 µM) 63% | viability, T/C (second compound 10 µM, first compound 0.949 µM) 71.1% | viability, T/C (second compound 10 µM, first compound 3 µM) 61.1%
> 3 µM: IC50 [1] | IC50 [2] | IC50 [3] | IC50 [4] | IC50 [5]

O=C(c1cc(Cc2n[nH]c(=O)c3ccccc23)ccc1F)N1CCN(C(=O)C2CC2)CC1
4.91 µM and 0.633 µM: IC50 (curve of compound)
inactive: viability, T/C (compound 0.0316 µM) 90.5% and 78.2% | viability, T/C (compound 0.1 µM) 99.3% and 78.3% | viability, T/C (compound 0.316 µM) 92.2% and 59.4% | viability, T/C (compound 1 µM) 75.5% and 42.5% | viability, T/C (compound 3.16 µM) 54.9% and 41.5% | viability, T/C (compound 10 µM) 43.3% and 30.9%

CC1COCCN1c1cc(C2(S(C)(=N)=O)CC2)nc(-c2ccnc3[nH]ccc23)n1 (configuration not stated) + NC1CC1c1ccc(-c2cccc(O)c2)cc1
0.357 µM: IC50 [1]
0.501 µM: IC50 [3]
0.152 µM: IC50 [5]
0.259 µM: IC50 [4]
inactive: viability, T/C [6] 97.8% | viability, T/C [7] 78.5% | viability, T/C [8] 51.9% | viability, T/C [9] 35% | viability, T/C [10] 28.9% | viability, T/C [11] 27.7% | viability, T/C [12] 112% | viability, T/C [13] 76.6% | viability, T/C [14] 55% | viability, T/C [15] 38.2% | viability, T/C [16] 31.8% | viability, T/C [17] 25.2% | viability, T/C [18] 101% | viability, T/C [19] 77.4% | viability, T/C [20] 55.3% | viability, T/C [21] 41.5% | viability, T/C [22] 29.1% | viability, T/C [23] 22.4% | viability, T/C [24] 88.5% | viability, T/C [25] 65.3% | viability, T/C [26] 46.1% | viability, T/C [27] 35% | viability, T/C [28] 31.5% | viability, T/C [29] 24.6% | viability, T/C [30] 81% | viability, T/C [31] 58.4% | viability, T/C [32] 34.6% | viability, T/C [33] 29.3% | viability, T/C [34] 25.8% | viability, T/C [35] 22.8%
0.435 µM: IC50 [2]
